Data on one substance can be found in patent publication US20170273906A1, “TARGETED LIPOSOMES ENCAPSULATING IRON COMPLEXES AND THEIR USES” (Ramot at Tel-Aviv University Ltd., priority 2014, published 2017).

Data set [1] concerns Mouse Model of Myocardial Infarction (MI). Put plainly: Histological analysis of infarct size (hematoxylin and eosin), 30 days after MI. The class given is in vivo. The conditions noted are these: FIG. 13E. The source says: (§1) Twelve week-old female Balb/C mice (20 gr.) were anesthetized with 2% isoflurane, and were surgically opened by left thoractomy through the fourth intercostal space to expose the beating heart. To induce MI, the left main coronary artery was permanently occluded with an intramural suture.
The imaging results of treatment with Hemin/HA-L (FIG. 13A), free hemin (FIG. 13B), empty liposomes (FIG. 13C) and saline (FIG. 13D) were confirmed by histological analysis, 30 days after MI. […] Noticeably, empty liposomes and free hemin treatments were also associated with a decreased scar tissue (by 40% and 43%), compared with saline (FIG. 13E). Overall, the presented findings indicate that hemin/HA-L is a promising agent to modulate and resolve inflammation following MI by enhancing healing and repair processes.

The next data set deals with NAR xenografts. Put plainly: Mouse tumor model, tumor volume. To be noted: tail vein, 3 injections a week apart; 2 mpk hemin and/or 125 mpk lipid; follow up two weeks after last injection; FIG. 17B. The class given is in vivo. The procedure:
The experimental details and design were as follows: Hsd:Athymic Nude Foxn1nu female mice (8 weeks old, 25 gr.) were inoculated with NAR cells (6.5*10^6 cells/100 μl HBSS), to the flank. Treatment was initiated at tumor volumes of 150-180 mm^3. There were three treatment groups and in all three the solvent was HBSS: (1) mice injected with drug-free HA-L^hi at the dose of 125 mpk lipid. (2) mice injected with free hemin at the dose of 2 mpk and (3) mice injected with hemin/HA-L^hi at the respective doses of 2 mpk (hemin) and 125 mpk (lipid). The injections were to the tail vein, and the injection volume was 200 μl. Each mice was given 3 injections spaced a week apart. Follow up was by animal weight and tumor volume (measured by caliper), up to two weeks after the last injection.

The subject of the next data set is NCI/ADR-Res. Put plainly: Cell viability (XTT and SRB), NCI/ADR-Res. It is filed as cell-based, human. The conditions noted are these: 24 hours. The procedure:
(§2) For evaluating the effect of Hemin/HA-L on cancer cells, the liposomes prepared as described above were used. The only difference was in the amount of dry liposome forming lipid powder used in the “cancer aspect”. Specifically, in the following anti-cancer aspect, for rehydration of the hemin, higher amounts of the powder were used to reach a liposome concentration of 10-20 mM lipid.
(§3) The impact of hemin/HA-L at high liposome concentrations on cell viability was tested on five cell lines and compared to the same dose of free hemin, as well as to the same liposomal dose of drug-free HA-L.
(§4) Three of the cell lines originated from human cancers: MDA-MB-231 and MCF-7 from breast cancer and NCI/ADR-Res (abbreviated to NAR) from ovarian cancer. The RAW264.7 cell line is from mouse peritoneal macrophages, and the COS-7 cell line is noncancerous. […] MCF-7 is known to be sensitive to chemotherapeutic drugs, whereas NAR is known to be highly resistant to chemotherapeutic drugs, in the multi-drug resistant mechanism operating by the extrusion pumps of the ABC superfamily of transporters.
(§5) The Results of treating the five cell lines with hemin/HA-L, hemin, drug-free HA-L or control (i.e. untreated) for 24 hours, are shown in Tables 2 and 3, for hemin doses (free or liposomal) of 25 μg/ml and 50 μg/ml, respectively. Cell viability was evaluated by two independent methods: XTT and SRB.
To this end, NCI/ADR-Res (NAR) cells were first tested with drug-free regular liposomes and drug-free HA-L, at three liposome doses—4 mM, 10 mM, and 21 mM—lipid, with untreated cells serving as controls. The experiments were performed in 24-well plates, treatment was for 24 hours, and upon termination the active intracellular HO-1 was determined using a commercial kit and following the kit's instructions. Parallel wells were used to evaluate cell viability using the SRB method. The results are presented in FIG. 14 (average of 6 wells; Statistical significance was evaluated by student t test (two tail, unequal variance) for RL vs. control and for HA-L vs. control. *p<0.05, **p<0.003, ***p<0.0001).
A general note: Formazan colour is commonly taken as a measure of viable cells.

The subject of another data set is MDA-MB-231. Put plainly: Cell viability (XTT and SRB), MDA-MB-231. It is filed as cell-based, human. The conditions noted are these: 24 hours. Here is the method:
as §2, §3, §4, §5

The test system of data set [2] is HO-1. In words: Intracellular concentration of active HO-1 in NAR cells (commercial kit). It is filed as cell-based, human. The conditions noted are these: hemin 25 μg/ml (free, or encapsulated in 2 mM lipid), 24 hours; FIG. 15. Here is the method:
The experiments were performed in 24-well plates, treatment was for 24 hours, and upon termination the active intracellular HO-1 was determined using a commercial kit and following the kit's instructions. Parallel wells were used to evaluate cell viability using the SRB method. The results are presented in FIG. 14 (average of 6 wells; Statistical significance was evaluated by student t test (two tail, unequal variance) for RL vs. control and for HA-L vs. control. *p<0.05, **p<0.003, ***p<0.0001).
In both cases, as also shown in FIG. 15, cell viability (line crossing open circles) was intact.

Another data set concerns COS-7. Put plainly: Cell viability (XTT and SRB), COS-7. The class given is cell-based. To be noted: 24 hours. The procedure: as §2, §3, §4, §5
Data set [3] relates to LPS-activated RAW264.7 cells. In words: In vitro viability assay (XTT/SRB), LPS-activated macrophages. The class given is cell-based, mouse. To be noted: hemin dose of 50 μg/ml and liposome dose of 4 mM lipid, 24 hours, XTT; FIG. 7. Here is the method: I. RAW264.7 cells were seeded onto 96 well plates, and the experiments were initiated 24 hours later, at semi-confluency. The regular (serum supplemented) cell growth media was replaced by the same media but containing one of the following treatments: free hemin, drug-free RL-MLV, HA-MLV, hemin-encapsulating RL-MLV and hemin-encapsulating HA-MLV. Wells receiving the regular cell growth media without any addition served as controls. Incubation time was 24 hours, at the end of which the experiment was terminated and cell viability was determined by the XTT or SRB methods. Both methods yielded similar results.
Cell viability was determined using XTT method. […] In addition, cell viability was also determined by the SRB method, which is independent of mitochondrial enzymes (results not shown). Both methods gave similar results.

A further data set deals with peritoneal macrophages. In words: Peritoneal macrophage profile following injection after MI (FACS). The conditions noted are these: IP one day after MI, three days later. It is filed as in vivo, mouse.
From the text: as §1
To determine liposomal hemin effect on peritoneal and cardiac macrophages, hemin was formulated in HA-L. Hemin encapsulation efficiency was ˜100% at therapeutic dose levels. Mice were allocated with hemin/HA-L (2 mg hemin/kg body and 50 mg lipid/kg body), empty liposomes (HA-targeted, 50 mg lipid/kg body), free hemin (2 mg/kg body) or saline (100 μl) by intra-peritoneal injection one day after MI. Three days later, mice were euthanized and peritoneal macrophages were aspirated from abdominal cavity. Cells were counted and stained with an anti-mouse F4/80 (as general macrophage marker) and with either PE-conjugated anti-mouse CD86 (as M1 marker) or FITC-conjugated anti-mouse mannose receptor (CD206; as M2 marker). Cells were analyzed by FACS Calibur cytometer using CellQuest™ software.
Following hemin/HA-L (2 mg hemin/kg body and 50 mg lipid/kg body) injection into mice peritoneum (IP), macrophages from the abdominal cavity were isolated and analyzed by flow cytometry.

Another data set relates to RAW264.7. In words: Cell viability (XTT and SRB), RAW264.7. The class given is cell-based, mouse. To be noted: hemin 50 μg/ml, 24 hours. The procedure:
as §2, §3, §4, §5

In data set [4] the test system is HO-1. Put plainly: HO-1 expression in LPS-activated macrophages. It is filed as cell-based, mouse. The conditions noted are these: LPS 24 hours, then three days in culture; FIG. 1E. The procedure: III. Further, the effect of hemin/HA-LP on TNF-α secretion levels from LPS stimulated RAW264.7 macrophages, on IL-12 cytokine secretion from peritoneal macrophages stimulated with LPS for 24 hours, and expression of HO-1 expression were measured. In addition, the effect of hemin/HA-L on macrophage inflammatory and anti-inflammatory properties was evaluated. First, TNF-α secretion levels from LPS stimulated RAW264.7 macrophages was measured (FIG. 1C, “LP” denoting liposome). […] Next, mouse peritoneal macrophages were stimulated with LPS for 24 hours. After LPS removal, the cells were treated with either hemin/HA-LP, empty HA-LP, free hemin or saline.

For data set [5], the system named is LPS stimulated RAW264.7 macrophages. In words: TNF-α secretion from LPS stimulated macrophages. It is filed as cell-based, mouse. The conditions noted are these: hemin dose of 50 μg/ml, FIG. 1C. Here is the method: III. Further, the effect of hemin/HA-LP on TNF-α secretion levels from LPS stimulated RAW264.7 macrophages, on IL-12 cytokine secretion from peritoneal macrophages stimulated with LPS for 24 hours, and expression of HO-1 expression were measured. In addition, the effect of hemin/HA-L on macrophage inflammatory and anti-inflammatory properties was evaluated. First, TNF-α secretion levels from LPS stimulated RAW264.7 macrophages was measured (FIG. 1C, “LP” denoting liposome). […] Next, mouse peritoneal macrophages were stimulated with LPS for 24 hours. After LPS removal, the cells were treated with either hemin/HA-LP, empty HA-LP, free hemin or saline. […] The anti-inflammatory activity of hemin was evaluated in vitro, in the established cell line of mouse peritoneal macrophages RAW264.7. Anti-inflammatory treatment was measured by reduction in secretion of the pro-inflammatory cytokine TNF-α, in LPS-activated macrophages.

For another data set, the system named is MCF-7. Put plainly: Cell viability (XTT and SRB), MCF-7. It is filed as cell-based, human. The conditions noted are these: 24 hours. The procedure: as §2, §3, §4, §5

In the case of hemin [Free hemin], the “reduction of infarct size (scar tissue) compared with saline” value in data set [1] worked out at 43%. Besides, the tumor volume result in the data set on NAR xenografts is “slight decrease”. The “cell viability (SRB)” value in the data set with NCI/ADR-Res (free hemin 25 μg/ml or drug-free HA-L 2 mM lipid, FIG. 15) was “intact”. Further, the “Cell Viability” value is recorded as 120(±7) % in the data set with NCI/ADR-Res (hemin 25 μg/ml); 110(±6) % with NCI/ADR-Res (hemin 50 μg/ml); 92(±13) % with MDA-MB-231 (hemin 25 μg/ml); 91(±8) % in the data set on MDA-MB-231 (hemin 50 μg/ml); 99(±3) % with COS-7 (hemin 25 μg/ml); 91(±3) % in the data set with COS-7 (hemin 50 μg/ml). In addition, the Cell Viability entry in data set [3] is “did not significantly affected cell viability”; in the data set on RAW264.7, 119(±17) %; in the data set with MCF-7 (hemin 25 μg/ml) it was 104(±4) %; with MCF-7 (hemin 50 μg/ml) it was 108(±5) %. For the same substance, the “intracellular levels of active HO-1” value in the data set with HO-1 [2] is listed as “small, but significant increase”. In addition, the “M2 (anti-inflammatory) peritoneal macrophages” value in the data set on peritoneal macrophages (2 mg hemin/kg body and/or 50 mg lipid/kg body, FIG. 8C) came out at 6.4±1.5%. For the same substance, the “M2/M1, peritoneal macrophages” value with peritoneal macrophages (FIG. 8D) turned out to be 0.08±0.03. Also, the “HO-1 expression within macrophages” value in the data set with HO-1 [4] was “highest HO-1 expression”. The values for the TNF-α secretion entry in data set [5] and in [5] (listed as free hemin) were “no effect” and “high levels of TNF-α”, respectively.
